{"source": "patent US20100227853A1", "about": "“INHIBITORS OF CYCLIC AMP PHOSPHODIESTERASES” (Trustees of Boston College, priority 2008, published 2010)", "key": {"PDE7B [1]": {"target": "T1, PDE7B (Homo sapiens, UniProt Q9NP56)", "test": "5FOA growth assay in fission yeast strain expressing PDE7B", "assay_type": "cell-based", "design": "targets used in the assays are full-length proteins (as opposed to simply the catalytic domain); expressed in transfected cells; host or cells: Schizosaccharomyces pombe", "experimental": "(§1) PDE inhibition allows growth in 5FOA medium as measured by optical density after 48 hours incubation at 30° C. Compound BC12 and six structural analogs were tested for growth stimulation.\n(§2) Cells were pregrown in EMM medium [MP Biomedicals (Solon, Ohio), 3% glucose, filter-sterilized to avoid carmelization, which would introduce variability into the optical density of the medium] containing from 0 mM to 2.5 mM cAMP (or either 0.5 mM or 1.0 mM cGMP). This was to repress expression of the fbp1-ura4 reporter prior to exposure of cells to 5FOA medium. Cells were grown at 30° C. to exponential phase (approximately 10^7 cells/ml). Cells were collected by centrifugation and resuspended in 5FOA medium, and 25 μl were transferred to 384-well microtiter dishes (untreated, with flat clear bottoms) that had been pre-filled with 25 μl 5FOA medium and pre-pinned with 100 nl of compounds (stock solutions were generally 10 mM). Starting cell concentrations ranged from 0.5×10^5 to 4×10^5 cells/ml depending on the screening strain. […] Other positive control dishes contained 5 mM cAMP in the 5FOA medium for PDEs that lack appropriate control compounds. Cultures were grown for 48 hours at 30° C., sealed in an airtight container with moist paper towels to prevent evaporation. Optical densities (OD600) of cultures were measured using a microplate reader. Bioinformatic analysis of the results to determine composite Z scores was performed as previously described (1, 3)."}, "PDE7A [2]": {"target": "T2, PDE7A (Homo sapiens, UniProt Q13946)", "T2 sequence (Q13946 whole entry, the tested form may be a part)": "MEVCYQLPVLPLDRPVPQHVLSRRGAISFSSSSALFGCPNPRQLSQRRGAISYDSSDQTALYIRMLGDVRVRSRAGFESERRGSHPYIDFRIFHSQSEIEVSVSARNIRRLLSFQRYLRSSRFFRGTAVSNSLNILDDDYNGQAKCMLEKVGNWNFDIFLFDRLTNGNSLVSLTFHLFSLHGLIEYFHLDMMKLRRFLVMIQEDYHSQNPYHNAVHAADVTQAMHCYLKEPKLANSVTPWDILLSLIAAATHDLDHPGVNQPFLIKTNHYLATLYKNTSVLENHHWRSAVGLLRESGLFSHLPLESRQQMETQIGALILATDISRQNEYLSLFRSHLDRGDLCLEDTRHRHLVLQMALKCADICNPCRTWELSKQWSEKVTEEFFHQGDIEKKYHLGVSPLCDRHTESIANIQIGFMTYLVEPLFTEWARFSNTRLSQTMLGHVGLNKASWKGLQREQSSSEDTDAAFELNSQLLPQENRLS", "test": "5FOA growth assay in fission yeast strain expressing PDE7A", "assay_type": "cell-based", "design": "targets used in the assays are full-length proteins (as opposed to simply the catalytic domain); expressed in transfected cells; host or cells: Schizosaccharomyces pombe, PDE gene integrated in place of cgs2", "experimental": "as §1, §2"}, "PDE7B [3]": {"target": "T1, PDE7B", "test": "in vitro enzyme assay, PDE7B catalytic domain from E. coli, hydrolysis of cAMP to AMP", "assay_type": "biochemical", "design": "The PDE7B catalytic domain was expressed in and purified from E. coli; made in house; host or cells: E. coli", "settings": "for pIC50: AC200 = [Compound] that doubles PDE activity, read-out: IC50 (or AC200), PDE7B", "experimental": "The PDE7B catalytic domain was expressed in and purified from E. coli and tested for activity in an in vitro enzyme assay, measuring the hydrolysis of cAMP to AMP. Four dilutions of the enzyme preparation were tested at various compound concentrations (X axis). The percent of cAMP hydrolyzed is plotted on the Y axis."}, "PDE7B [4]": {"target": "T3, PDE7B (Rattus norvegicus, UniProt A0A0G2JXU0)", "T3 construct": "endogenous in cells; host or cells: rat pulmonary endothelial cells (extract)", "T3 sequence (A0A0G2JXU0 1-446)": "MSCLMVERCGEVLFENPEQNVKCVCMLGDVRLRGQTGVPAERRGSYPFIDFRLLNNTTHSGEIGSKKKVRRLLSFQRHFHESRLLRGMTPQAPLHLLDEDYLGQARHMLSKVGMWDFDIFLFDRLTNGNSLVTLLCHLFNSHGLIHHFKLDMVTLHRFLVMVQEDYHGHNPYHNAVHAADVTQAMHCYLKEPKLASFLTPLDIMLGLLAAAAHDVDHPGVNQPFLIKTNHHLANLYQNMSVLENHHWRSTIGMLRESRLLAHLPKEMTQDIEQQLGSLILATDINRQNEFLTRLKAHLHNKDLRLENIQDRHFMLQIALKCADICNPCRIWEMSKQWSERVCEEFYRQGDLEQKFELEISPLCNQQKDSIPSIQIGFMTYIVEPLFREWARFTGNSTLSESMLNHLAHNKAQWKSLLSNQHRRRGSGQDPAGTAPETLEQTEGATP", "test": "in vitro enzyme assay of PDE7B activity in extracts from rat pulmonary endothelial cells", "assay_type": "biochemical", "description": "FIG. 13 is the in vitro enzyme assays of PDE7B activity in extracts made from rat pulmonary endothelial cells."}, "Lymphoma cells": {"test_system": "Lymphoma cells", "test": "in vitro assay on lymphoma cells (24 hours, Hoechst stain, fsc/ssc)", "assay_type": "cell-based", "experimental": "FIGS. 6A and 6B show the in vitro assay of BC54 action. Lymphoma cells are treated with the drug for 24 hours, then stained with Hoechst dye. The cells form a clearly defined population on the fsc/ssc dot plot. Vincristine treatment was used as a positive control. […] BC54 is referred to in the figure as S54."}, "U937 cells": {"test_system": "U937 cells", "test": "TNF alpha release by LPS-treated U937 cells", "assay_type": "cell-based", "settings": "for TNF alpha, % vehicle control: 10 uM cmpd, 0 uM BC30"}, "PDE4D2-CAT": {"target": "T4, PDE4D2-CAT (Homo sapiens, UniProt Q08499)", "T4 construct": "86-413; made in house; host or cells: E. coli", "T4 sequence (Q08499 388-715)": "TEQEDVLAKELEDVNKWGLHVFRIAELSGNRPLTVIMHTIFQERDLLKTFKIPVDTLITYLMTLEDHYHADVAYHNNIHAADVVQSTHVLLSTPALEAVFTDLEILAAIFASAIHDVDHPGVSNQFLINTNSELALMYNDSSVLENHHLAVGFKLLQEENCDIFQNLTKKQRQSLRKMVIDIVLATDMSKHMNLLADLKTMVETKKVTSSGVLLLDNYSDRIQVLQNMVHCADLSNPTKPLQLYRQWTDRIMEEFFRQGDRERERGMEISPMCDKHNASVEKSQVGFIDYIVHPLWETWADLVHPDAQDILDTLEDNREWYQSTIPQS", "test": "in vitro enzyme assay, catalytic fragment of PDE4D2 (residues 86-413)", "assay_type": "biochemical"}, "[5]": {"test_system": "PDE4A, PDE4B, PDE4D, PDE7A, PDE7B, PDE8A, PDE3A", "test": "Summary of PDE inhibitor profile"}, "CLL": {"test_system": "CLL", "test": "CLL assay", "assay_type": "cell-based"}, "PDE4D2-FL": {"target": "T5, PDE4D2-FL (Homo sapiens, UniProt Q08499)", "T5 construct": "1-507; made in house; host or cells: E. coli", "T5 sequence (Q08499 303-809)": "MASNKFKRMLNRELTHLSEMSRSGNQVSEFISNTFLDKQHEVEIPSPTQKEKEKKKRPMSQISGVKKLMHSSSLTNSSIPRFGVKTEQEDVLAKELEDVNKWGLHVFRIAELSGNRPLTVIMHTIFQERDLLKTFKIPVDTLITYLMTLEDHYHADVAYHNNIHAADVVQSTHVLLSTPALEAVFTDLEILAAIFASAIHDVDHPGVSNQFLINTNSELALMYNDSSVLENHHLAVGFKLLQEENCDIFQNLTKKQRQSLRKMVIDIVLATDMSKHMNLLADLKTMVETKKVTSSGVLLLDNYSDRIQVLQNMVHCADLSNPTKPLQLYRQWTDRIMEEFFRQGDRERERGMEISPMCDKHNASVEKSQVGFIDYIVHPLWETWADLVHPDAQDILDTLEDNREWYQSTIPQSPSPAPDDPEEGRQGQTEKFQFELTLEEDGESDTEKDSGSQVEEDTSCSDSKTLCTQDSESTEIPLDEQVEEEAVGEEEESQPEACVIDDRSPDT", "test": "in vitro enzyme assay, full-length PDE4D2 (residues 1-507)", "assay_type": "biochemical", "settings": "read-out: IC50 (or AC200), PDE4D2-FL"}, "PDE7A [6]": {"target": "T2, PDE7A", "test": "in vitro enzyme assay PDE7A", "assay_type": "biochemical", "design": "made in house; host or cells: E. coli", "settings": "for pIC50: E. coli expressed and purified enzyme, read-out: IC50 (or AC200), PDE7A"}, "PDE4B": {"target": "PDE4B (Homo sapiens, UniProt Q07343)", "sequence (Q07343 whole entry, species assumed)": "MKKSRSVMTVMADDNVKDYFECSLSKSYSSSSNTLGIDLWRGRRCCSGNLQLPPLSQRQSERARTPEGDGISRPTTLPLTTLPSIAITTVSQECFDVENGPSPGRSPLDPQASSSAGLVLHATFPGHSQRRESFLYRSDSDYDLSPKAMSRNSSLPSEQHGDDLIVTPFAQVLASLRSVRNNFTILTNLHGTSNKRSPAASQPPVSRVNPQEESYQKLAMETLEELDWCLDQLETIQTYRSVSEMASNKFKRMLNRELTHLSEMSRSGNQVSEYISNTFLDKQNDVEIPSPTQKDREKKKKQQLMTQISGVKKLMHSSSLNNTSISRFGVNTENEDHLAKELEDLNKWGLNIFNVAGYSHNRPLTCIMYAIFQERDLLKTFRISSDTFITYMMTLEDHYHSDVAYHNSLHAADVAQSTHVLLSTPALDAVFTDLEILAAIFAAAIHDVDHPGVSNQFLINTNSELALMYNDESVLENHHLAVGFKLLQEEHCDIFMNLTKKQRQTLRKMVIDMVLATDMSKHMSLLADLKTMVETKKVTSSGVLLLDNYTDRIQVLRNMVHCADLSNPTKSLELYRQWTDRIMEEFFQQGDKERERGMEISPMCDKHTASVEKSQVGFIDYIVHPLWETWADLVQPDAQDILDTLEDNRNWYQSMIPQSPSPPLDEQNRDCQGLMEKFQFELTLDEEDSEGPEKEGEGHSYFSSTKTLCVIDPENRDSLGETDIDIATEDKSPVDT", "test": "in vitro enzyme assay PDE4B (Table 7)", "assay_type": "biochemical", "settings": "2 micromolar compound; read-out: percent of PDE activity present, PDE4B"}, "PDE4A": {"target": "PDE4A (Homo sapiens, UniProt P27815)", "sequence (P27815 whole entry, species assumed)": "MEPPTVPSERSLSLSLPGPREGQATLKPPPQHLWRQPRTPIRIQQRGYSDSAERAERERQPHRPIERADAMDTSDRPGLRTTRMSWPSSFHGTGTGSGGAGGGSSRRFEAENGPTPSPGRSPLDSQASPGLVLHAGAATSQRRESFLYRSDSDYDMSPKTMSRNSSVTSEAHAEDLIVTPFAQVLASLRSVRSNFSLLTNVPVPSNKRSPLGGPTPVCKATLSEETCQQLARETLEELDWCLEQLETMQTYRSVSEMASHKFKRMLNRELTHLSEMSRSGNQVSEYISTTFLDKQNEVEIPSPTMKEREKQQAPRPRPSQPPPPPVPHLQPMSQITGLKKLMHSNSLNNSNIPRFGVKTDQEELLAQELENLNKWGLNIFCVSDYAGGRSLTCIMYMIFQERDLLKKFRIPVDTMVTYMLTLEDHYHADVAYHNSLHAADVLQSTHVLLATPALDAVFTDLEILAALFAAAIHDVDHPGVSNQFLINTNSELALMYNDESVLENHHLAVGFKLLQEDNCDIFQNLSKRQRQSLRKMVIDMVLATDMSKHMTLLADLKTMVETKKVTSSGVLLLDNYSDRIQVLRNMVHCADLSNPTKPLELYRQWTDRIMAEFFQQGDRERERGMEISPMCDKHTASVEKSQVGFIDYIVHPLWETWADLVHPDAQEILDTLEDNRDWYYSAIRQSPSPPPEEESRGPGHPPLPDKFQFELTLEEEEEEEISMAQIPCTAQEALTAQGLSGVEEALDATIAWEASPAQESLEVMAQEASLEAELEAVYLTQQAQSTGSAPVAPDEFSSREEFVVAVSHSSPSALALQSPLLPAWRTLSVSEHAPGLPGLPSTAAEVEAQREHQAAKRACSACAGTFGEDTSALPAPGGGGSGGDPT", "test": "in vitro enzyme assay PDE4A (Table 7)", "assay_type": "biochemical", "settings": "2 micromolar compound; read-out: percent of PDE activity present, PDE4A"}, "PDE4D": {"target": "PDE4D (Homo sapiens, UniProt Q08499)", "sequence (Q08499 whole entry)": "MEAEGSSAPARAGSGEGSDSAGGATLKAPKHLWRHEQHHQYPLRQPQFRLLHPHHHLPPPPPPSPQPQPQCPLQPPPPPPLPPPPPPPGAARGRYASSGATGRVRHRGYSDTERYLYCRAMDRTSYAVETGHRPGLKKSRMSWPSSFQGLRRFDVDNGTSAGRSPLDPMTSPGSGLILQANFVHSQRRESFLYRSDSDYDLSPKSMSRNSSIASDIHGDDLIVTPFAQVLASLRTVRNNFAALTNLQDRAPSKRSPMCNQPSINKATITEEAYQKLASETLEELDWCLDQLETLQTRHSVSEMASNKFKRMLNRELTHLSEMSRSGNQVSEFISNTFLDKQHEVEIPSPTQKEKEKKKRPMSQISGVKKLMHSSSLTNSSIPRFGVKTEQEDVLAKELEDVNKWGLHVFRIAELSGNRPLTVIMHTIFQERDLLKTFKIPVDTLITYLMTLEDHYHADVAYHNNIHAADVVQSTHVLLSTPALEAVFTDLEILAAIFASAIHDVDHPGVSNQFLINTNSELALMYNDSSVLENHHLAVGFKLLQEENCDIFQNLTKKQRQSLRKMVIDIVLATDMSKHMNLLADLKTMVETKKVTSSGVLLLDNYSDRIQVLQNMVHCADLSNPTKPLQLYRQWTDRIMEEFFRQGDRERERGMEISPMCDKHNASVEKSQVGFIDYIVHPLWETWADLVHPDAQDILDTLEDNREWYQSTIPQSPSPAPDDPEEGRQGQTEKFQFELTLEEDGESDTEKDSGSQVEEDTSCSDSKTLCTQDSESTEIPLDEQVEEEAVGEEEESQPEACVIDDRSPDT", "test": "in vitro enzyme assay PDE4D (Table 7)", "assay_type": "biochemical", "settings": "2 micromolar compound; read-out: percent of PDE activity present, PDE4D"}, "PDE4B2": {"target": "PDE4B2 (Homo sapiens, UniProt Q07343)", "sequence (Q07343 1-564 isoform Q07343-2, species assumed)": "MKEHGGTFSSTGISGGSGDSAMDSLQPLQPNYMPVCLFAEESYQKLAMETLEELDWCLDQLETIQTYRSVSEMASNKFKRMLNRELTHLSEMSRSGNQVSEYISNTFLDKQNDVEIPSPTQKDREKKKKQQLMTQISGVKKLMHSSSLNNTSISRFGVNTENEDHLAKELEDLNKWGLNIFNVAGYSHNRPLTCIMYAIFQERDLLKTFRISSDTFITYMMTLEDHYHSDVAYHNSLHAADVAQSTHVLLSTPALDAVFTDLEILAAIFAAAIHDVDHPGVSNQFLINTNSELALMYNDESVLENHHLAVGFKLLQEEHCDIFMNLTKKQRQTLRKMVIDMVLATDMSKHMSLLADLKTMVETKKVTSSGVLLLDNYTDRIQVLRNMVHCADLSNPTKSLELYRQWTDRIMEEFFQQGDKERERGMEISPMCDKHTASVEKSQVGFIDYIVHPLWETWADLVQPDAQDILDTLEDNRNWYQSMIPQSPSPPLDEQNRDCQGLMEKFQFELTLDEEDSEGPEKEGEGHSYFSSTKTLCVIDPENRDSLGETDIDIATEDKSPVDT", "test": "in vitro enzyme assay, E. coli expressed and purified PDE4B2", "assay_type": "biochemical", "design": "targets used in the assays are full-length proteins (as opposed to simply the catalytic domain)", "settings": "read-out: IC50 (or AC200), PDE4B2"}, "[7]": {"settings": "optical density after 48 hours at 30° C."}}, "note": "pEC50, pIC50, pKi: −log10 of the molar value.", "data": [{"smiles": "CN(C)c1ccc(/C=C/C=C2/C(=O)NC(=O)N(c3ccccc3)C2=O)cc1", "note": "[BC12]", "values": [{"measurement": "5FOA growth response, PDE7B strain, in words", "setting": "PDE7B [1]; [7]", "value": "most potent inhibitor, promoting growth at low micromolar concentrations"}, {"measurement": "5FOA growth response, PDE7A strain, in words", "setting": "PDE7A [2]; [7]", "value": "most potent inhibitor, promoting growth at low micromolar concentrations"}, {"measurement": "PDE7B, 2 uM cpm", "setting": "PDE7B [3]; 2 uM compound", "value": 2388, "unit": "cpm"}, {"measurement": "effect on cAMP hydrolysis by PDE7B in vitro, in words", "setting": "PDE7B [3]; E. coli-expressed catalytic domain", "value": "increases cAMP hydrolysis"}, {"measurement": "inhibition of PDE7B from pulmonary endothelial cells, in words", "setting": "PDE7B [4]", "value": "potent inhibitor"}, {"measurement": "pKi", "setting": "PDE7B [4]; KI on PDE7 (PDE7B) from rat pulmonary endothelial cells, cell extracts", "value": "~6.70"}, {"measurement": "KI lower than that of BRL50481", "setting": "PDE7B [4]; PDE7B, rat pulmonary endothelial cell extracts", "value": "approximately 100 fold"}, {"measurement": "apoptosis of lymphoma cells, in words", "setting": "Lymphoma cells", "value": "apoptosis effect"}, {"measurement": "TNF alpha reduction, conclusion in words", "setting": "U937 cells", "value": "shows activity"}, {"measurement": "PDE4D catalytic domain, 2 uM cpm", "setting": "PDE4D2-CAT; 2 uM compound", "value": 3686, "unit": "cpm"}, {"measurement": "activity at 2 µM", "setting": "PDE4D2-CAT; 2 micromolar compound, DMSO = 100, read-out: In vitro activation of PDE4D catalytic domain, % activity", "value": 133, "unit": "%"}, {"measurement": "PDE inhibitor profile, in words", "setting": "[5]", "value": "PDE7 inhibitor that appears to activate PDE4D and PDE7B in vitro (not in vivo)"}, {"measurement": "activity in CLL assay, in words", "setting": "CLL", "value": "shows activity"}]}, {"smiles": "Cc1ccc([N+](=O)[O-])cc1S(=O)(=O)N(C)C", "note": "[BRL50481, reference compound]", "values": [{"measurement": "pEC50", "setting": "PDE7B [1]; OD600 0.6, read-out: ED50 for 5FOA growth assays, PDE7B", "value": 4.38}, {"measurement": "pEC50", "setting": "PDE7A [2]; OD600 0.6, read-out: ED50 for 5FOA growth assays, PDE7A", "value": 5.89}, {"measurement": "pIC50", "setting": "PDE4D2-FL", "value": "< 4.70"}, {"measurement": "pIC50", "setting": "PDE7B [3]", "value": 4.74}, {"measurement": "pIC50", "setting": "PDE7A [6]", "value": 6.70}]}, {"smiles": "Cc1c(C(=O)Nc2ccc(F)cc2F)sc2ncnc(N3CCC(C)CC3)c12", "note": "[Compound 58]", "values": [{"measurement": "remaining activity at 2 µM", "setting": "PDE4B", "value": 16, "unit": "%"}, {"measurement": "pIC50", "setting": "PDE7B [3]", "value": "< 5.70"}, {"measurement": "remaining activity at 2 µM", "setting": "PDE7A [6]; 2 micromolar compound, read-out: percent of PDE activity present, PDE7A", "value": 68, "unit": "%"}, {"measurement": "pIC50", "setting": "PDE7A [6]", "value": "< 5.70"}, {"measurement": "TNF", "setting": "U937 cells; 3 HOURS", "value": 3345, "unit": "pg/mL"}, {"measurement": "TNF, % EtOH cntrl", "setting": "U937 cells; 3 HOURS", "value": 69.2, "unit": "%"}, {"measurement": "TNF", "setting": "U937 cells; 20 HOURS", "value": 10030, "unit": "pg/mL"}, {"measurement": "TNF, % EtOH cntrl", "setting": "U937 cells; 20 HOURS", "value": 73.3, "unit": "%"}, {"measurement": "TNF alpha, % vehicle control", "setting": "U937 cells; after 3 h.", "value": 61.2, "unit": "%"}, {"measurement": "TNF alpha, % vehicle control", "setting": "U937 cells; after 20 h.", "value": 53.8, "unit": "%"}, {"measurement": "pIC50", "setting": "PDE4D2-CAT; catalytic fragment, AC200 = [Compound] that doubles PDE activity, read-out: IC50 (or AC200), PDE4D2-CAT", "value": "> 5.70"}, {"measurement": "remaining activity at 2 µM", "setting": "PDE4A", "value": 31, "unit": "%"}, {"measurement": "remaining activity at 2 µM", "setting": "PDE4D", "value": 31, "unit": "%"}, {"measurement": "pIC50", "setting": "PDE4B2", "value": 5.82}]}]}
